# Data taken from PMC12123366, “Effect of urea and squaramide IMPDH inhibitors on C. parvum: in vitro trial design impacts the assessment of drug efficacy” (International Journal for Parasitology: Drugs and Drug …, 2025).
# Read-outs that look alike come from different tables or passages of the source.
# Assays:
# [1] = CytoTox 96 Non-Radioactive Cytotoxicity Assay; assay type: cell-based, Human; conditions: human; HCT-8 cells, 10 µM
# Procedure: (§1) HCT-8 cell lines (Human ileocecal adenocarcinoma) were purchased from The European Collection of Authenticated Cell Cultures (ECACC) under catalogue number No 90032006) and maintained with regular subculturing in a growth medium consisting in a RPMI 1640 medium supplemented with 1 mM sodium pyruvate, 2 mM l-glutamine, 10 % (vol/vol) of heat-inactivated fetal calf serum, 100 U/mL of penicillin and 100 μg/mL of streptomycin. Cells were grown in an incubator at 37 °C with 5 % (vol/vol) CO2 until monolayers reached 80–90 % confluency. Cells were cultivated in 96-well format plate for molecular analysis and in Lab-Tek™ Chamber Slides for microscopic analysis. 50,000 cells were seeded and incubated during 24 h (until confluency) before infection.
# (§2) The compounds (2 mg/mL in DMSO) were diluted to 500 μM and serially diluted in maintenance medium. The cytotoxicity of the compounds was assessed using the CytoTox 96® Non-Radioactive Cytotoxicity Assay (Promega, G1790) in accordance with the manufacturer's protocol.
# An initial screening experiment was conducted on the full library to evaluate the cytotoxicity effects on HCT-8 cells. Nitrophenylurea 12 was identified as being cytotoxic so was not progressed further (See Supporting Information). In total, 21 candidates were assessed for their ability to inhibit C. parvum replication at a concentration of 10 μM. Each compound was added at the start of the infection of HCT-8 cells (T0) and remained in the culture for 48 h post infection (hpi). Parasitic quantification was then performed using a molecular method (qPCR). Of the 21 compounds tested, nine were effective inhibitors, reducing parasite proliferation by 80 % or more (Fig. 6). A clear trend emerged with all of the benzyl-substituted ureas 6–10 displaying poor inhibitory activity, regardless of the attached heteroaryl substituent. […] Two exceptions to this were imidazole-containing analogues 18 and 19. […] Among the squaramide series, the results were highly dependent on the nature of the substituent, ranging from high (e.g. ketone 29, furan 32), medium (e.g. 3-pyrazole 30) to low (e.g. 4-pyrazole 31) anti-cryptosporidial activity.
# [2] = system: C. parvum; assay: Inhibition of C. parvum replication in infected HCT-8 cells, parasite quantification by qPCR; assay type: cell-based, Cryptosporidium parvum (Iowa strain) in human HCT-8 cells; conditions: for inhibition at 10 µM / IC50: Cryptosporidium parvum, HCT-8; for inhibition at 10 µM: added at start of infection (T0), 48 hpi, mean ± SD (n = 3 wells), read-out: inhibition rate of C. parvum replication; for inhibition at 10 µM / anti-cryptosporidial activity (in words): 10 μM; for anti-cryptosporidial activity (in words): added at T0, 48 hpi
# Procedure: as §1
# (§3) C. parvum oocysts of “Iowa” strain was purchased from Waterborne Inc. and stored in PBS at 4 °C. A ratio of one oocyst per cell was used to infect HCT-8 cell. Oocysts suspension was incubated with 10 % of a solution (vol/vol) containing 0.5 % sodium hypochlorite for 10 min at 4 °C. After a washing step by centrifugation at 1800g for 15 min at 4 °C, oocysts were incubated in acidified water (pH 2.4) containing 0.025 % (wt/vol) of trypsin, at 37 °C for 20 min, to trigger excystation (infectivity assay developed by [Keegan et al., 2003]). After a third centrifugation step at 1800 g for 10 min, oocysts were suspended in a maintenance medium. The maintenance medium consisted of RPMI 1640 medium with 2 mM l-glutamine, 5 mM glucose, 0.5 μM folic acid, 7 μM 4-amino-benzoic acid, 0.1 μM calcium pantothenate, 50 nM ascorbic acid, 2 % (vol/vol) heat inactivated fetal calf serum and 100 U/mL of streptomycin/penicillin. Before oocyst inoculation, the growth medium was switched with maintenance medium. Triggered oocysts were finally added on monolayers and incubated during 48 h at 37 °C in a 5 % (vol/vol) CO2 atmosphere.
# as §2
# The COWP gene (GenBank no. AF248743) was amplified by qPCR following the previously described protocol ([Guy et al., 2003]), and the parasitic concentration was determined using the standard range of C. parvum oocyst concentrations. Briefly, serial dilutions from a pure C. parvum oocyst suspension were made starting from a stock solution of 5 × 10^7 oocysts (4 × 10^5 – 2 × 10^5 – 1 × 10^5 – […]–2.5 × 10^3–1.25 × 10^3 oocysts) and the standard curve for quantifying parasites was created to obtain a correlation between Cq values and the Log of concentration.
# At the end of the experiment, supernatants from the C. parvum-infected cell cultures were collected. The cell layers were then washed (1x PBS), detached using trypsin (0.25 %), and centrifuged (10,000×g, 10 min). The resulting cell pellet was re-suspended in 150–200 μL of sterile 1x PBS and stored at −20 °C for later DNA extraction. DNA extraction of C. parvum was performed using the Purelink™ Microbiome Purification Kit (Invitrogen™) following the manufacturer's protocol “Transport Media and Microbial Culture Samples” ([Invitrogen, 2015]).
# FRePCR reactions were formulated to a volume of 25 μL and comprised of 1.25 μL of primers (10 μM), 0.05 μL probe (100 μM), 12.5 μL Master Mix 2X, LightCycler 480 Probes Master (ref. 04707494001, Roche), 4.95 μL H2O nuclease-free and 5 μL of DNA template. Quantitative PCR was run on a CFX96 real time PCR system (BioRad) with an initial step of activation (10 min 95 °C) following by 40 cycles with cycling conditions as follows: 95 °C for 10 s, 60 °C for 1 min. BioRad CFX manager software was used to analyse the data. Samples were considered negative if Cq ≥ 40.
# A common way of defining a 50 % response is to use a mathematical model like the 4-parameter logistic model (4 PL) ([Sebaugh, 2011]). […]
# [3] = system: C. parvum; assay: Quantification of C. parvum development in HCT-8 cells by immunofluorescence microscopy; assay type: cell-based, Cryptosporidium parvum (Iowa strain) in human HCT-8 cells; conditions: for effect on distribution of parasite area: 7.5 μM or 15 μM, added at 30 hpi until 48 hpi; for reduction in parasite quantification: 7.5 μM, added at 30 hpi, until 48 hpi, fluorescence microscopy
# Procedure: as §1, §3
# After aspiration of the supernatant from the Nunc™ Lab-Tek™ Chamber slide wells, cells were rinsed with PBS 1X. A fixation step was then performed using methanol during 8 min at 4 °C. Cryptosporidium developmental forms were labelled with a polyclonal IgG antibodies reaction kit tagged with Cy3 (Sporo-Glo™, Waterborne Inc.) and oocysts were labelled with FL-Crypt-a-Glo™, a fluorescein-labelled mouse monoclonal antibody made to oocyst outer wall antigenic sites (epitopes) of C. parvum. Antibodies were 1/20th diluted and incubated on cells for 1 h at room temperature. DNA was labelled with Hoechst for 5 min at room temperature. Slides were then coverslipped with a no fading mounting medium (Waterborne Inc.) and observed with a Leica DMi8 microscope. Each dilution was performed in triplicate and, for each well, ten images were taken at 400× magnification. Parasite quantification was carried out automatically using the StarDist neural network, which was specifically trained to detect and quantify C. parvum parasites.
# To confirm our initial findings, we employed an alternative method using immunofluorescence microscopy to quantify C. parvum development in the presence of inhibitors (Fig. S1). […] The results corroborated our initial screening data, confirming the high efficacy of all tested chloronitrophenyl urea analogues, except for imidazole derivatives 18 and 19.
# To test this hypothesis, increasing concentrations of squaramide 32 (i.e. 0, 2, 4 and 8 μM) were applied at different infection times: at 0 hpi (hours post infection), to assess the impact on parasite invasion; at 4 hpi, to examine the effect on the early stages of intracellular development; and at 30 hpi, to evaluate the influence on late stage intracellular development. The microscopic images in Fig. 7 illustrate the effect of 32 when applied at the onset of infection and at 30 hpi. Using fluorescent antibodies, the intracellular development of C. parvum is highlighted by green fluorescence, which allows for quantification of the number of parasites per image.
# [4] = compounds at 0, 3, 6 and 9 μM added at t0 and left until 48 hpi, qPCR, read-out: IC50
Compound,"IC50 [2, 4] [µM]","IC50 ([2]; previous experimentation based on qPCR, standard Cryptosporidium inhibitor in in vitro assays, read-out: mean IC50) [µM]",viability at 10 µM [1] [%],inhibition at 10 µM ([2]; qPCR) [%],effect on distribution of parasite area [3],reduction in parasite quantification [3] [%],anti-cryptosporidial activity (in words) ([2]; qPCR)
CC(C)(NC(=O)NCc1ccccc1)c1cccc(-c2cc[nH]n2)c1 [Compound 6],–,–,97,–,–,–,–
CC(C)(NC(=O)NCc1ccccc1)c1cccc(-c2cn[nH]c2)c1 [Compound 7],–,–,96.7,–,–,–,–
CC(C)(NC(=O)NCc1ccccc1)c1cccc(-c2ccco2)c1 [Compound 8],–,–,95.9,–,–,–,–
CC(C)(NC(=O)NCc1ccccc1)c1cccc(-c2cccs2)c1 [Compound 9],–,–,95.4,–,–,–,–
CC(C)(NC(=O)NCc1ccccc1)c1cccc(-c2ccccc2)c1 [Compound 10],–,–,97.4,–,–,–,–
CC(C)(NC(=O)Nc1ccc(Cl)c([N+](=O)[O-])c1)c1cccc(-c2nccn2Cc2ccccc2)c1 [Compound 17],4.69,–,97.3,88.2 ± 1.1,–,–,–
CC(C)(NC(=O)Nc1ccc(Cl)c([N+](=O)[O-])c1)c1cccc(-c2cn(C(c3ccccc3)(c3ccccc3)c3ccccc3)cn2)c1 [Compound 18],–,–,97.3,≤ 50,–,–,–
CC(C)(NC(=O)Nc1ccc(Cl)c([N+](=O)[O-])c1)c1cccc(-c2c[nH]cn2)c1 [Compound 19],–,–,97.4,≤ 50,–,–,–
"CC(=O)c1cccc(C(C)(C)Nc2c(Nc3ccc(Cl)c([N+](=O)[O-])c3)c(=O)c2=O)c1 [Compound 29, 3-((2-(3-acetylphenyl)propan-2-yl)amino)-4-((4-chloro-3-nitrophenyl)amino)cyclobut-3-ene-1,2-dione]",3.59,–,97.2,87.7 ± 1.7,–,–,high
"CC(C)(Nc1c(Nc2ccc(Cl)c([N+](=O)[O-])c2)c(=O)c1=O)c1cccc(-c2cc[nH]n2)c1 [Compound 30, 3-((2-(3-(1H-Pyrazol-3-yl)phenyl)propan-2-yl)amino)-4-((4-chloro-3-nitrophenyl)amino)cyclobut-3-ene-1,2-dione]",–,–,98.2,–,–,–,medium
"NC[C@@H]1O[C@H](O[C@H]2[C@@H](O)[C@H](O[C@@H]3[C@@H](O)[C@H](N)C[C@H](N)[C@H]3O[C@H]3O[C@H](CO)[C@@H](O)[C@H](O)[C@H]3N)O[C@@H]2CO)[C@H](N)[C@@H](O)[C@@H]1O [Paromomycin, reference compound]",–,511,–,–,–,–,–

# More lines, main results first:
"IC50 [2, 4] [µM]","IC50 ([2]; previous experimentation based on qPCR, standard Cryptosporidium inhibitor in in vitro assays, read-out: mean IC50) [µM]",Compound,viability at 10 µM [1] [%],inhibition at 10 µM ([2]; qPCR) [%],effect on distribution of parasite area [3],reduction in parasite quantification [3] [%],anti-cryptosporidial activity (in words) ([2]; qPCR)
5.44,–,CCOC(=O)n1ccc(-c2cccc(C(C)(C)NC(=O)Nc3ccc(Cl)c([N+](=O)[O-])c3)c2)n1 [Compound 13],97.2,87.5 ± 6.4,–,–,–
6.19,–,CC(C)(NC(=O)Nc1ccc(Cl)c([N+](=O)[O-])c1)c1cccc(-c2cc[nH]n2)c1 [Compound 14],97.6,85.1 ± 3.8,–,–,–
5.98,–,CCOC(=O)n1cc(-c2cccc(C(C)(C)NC(=O)Nc3ccc(Cl)c([N+](=O)[O-])c3)c2)cn1 [Compound 15],97.5,71.7 ± 1.5,–,–,–
5.32,–,CC(C)(NC(=O)Nc1ccc(Cl)c([N+](=O)[O-])c1)c1cccc(-c2cn[nH]c2)c1 [Compound 16],96.4,64.3 ± 3.9,–,–,–
4.51,–,CC(C)(NC(=O)Nc1ccc(Cl)c([N+](=O)[O-])c1)c1cccc(-c2nccs2)c1 [Compound 20],98.4,85.7 ± 2.2,–,–,–
6.19,–,CC(C)(NC(=O)Nc1ccc(Cl)c([N+](=O)[O-])c1)c1cccc(-c2ccco2)c1 [Compound 21],98.3,64 ± 1,–,–,–
3.77,–,CC(C)(NC(=O)Nc1ccc(Cl)c([N+](=O)[O-])c1)c1cccc(-c2cccs2)c1 [Compound 22],98.5,86.6 ± 2.6,–,–,–
3.23,–,CCOc1ncccc1-c1cccc(C(C)(C)NC(=O)Nc2ccc(Cl)c([N+](=O)[O-])c2)c1 [Compound 23],94.1,88 ± 3.5,successfully inhibits larger parasites,32,–
3.64,–,CC(C)(NC(=O)Nc1ccc(Cl)c([N+](=O)[O-])c1)c1cccc(-c2cccnc2F)c1 [Compound 24],96.8,83.4 ± 1.5,dose-dependent effect,10.5,–
